Legend:
Type in all cases: cell-based
[1] = test system: Huh 7 (human hepatome-cell line); assay: Cytotoxicity: proliferation, Cell Proliferation ELISA, BrdU, Huh 7; conditions: Huh7 cells; inhibitors up to highest measured concentration of 1 mM (so in the source); cycloheximide 2.5 μg/ml, camptothecin 0.2 μg/ml
Method: (§1) Huh 7 (human hepatome-cell line) and CaCo2 (human colon carcinoma-cell line) were seeded to 96 well plates in Dulbecco's Modified Eagle's Medium (DMEM)/10% fetal calf serum (FCS) and cultivated. The method is known to the skilled person.
(§2) […] The determination of the proliferation was carried out using the Cell Proliferation ELISA, BrdU (Roche 11 647 229 001): 24 hours after incubation of the cells with the inhibitor BrdU was added. The colorimetric development of the test was made after further 48 hours according to manufacturer's information. The extinction was measured at 450 nm. For determination of the metabolic activity using the EZ4U-Assay (Biomedica B1-5000) the tetrazolium substrate was added to the cells 48 hours after addition of the inhibitor. The capacity for reaction of the cells was measured every hour over a period of 4 hours at 450 nm against a reference filter of 630 nm. DMEM without inhibitor was added as reference in both experiments, as positive control cycloheximide (2.5 μg/ml) and camptothecin (0.2 μg/ml).

[2] = test system: CaCo2 (human colon carcinoma-cell line); assay: Cytotoxicity: proliferation, Cell Proliferation ELISA, BrdU, CaCo2; conditions: CaCo2 cells; inhibitors up to highest measured concentration of 1 mM (so in the source); cycloheximide 2.5 μg/ml, camptothecin 0.2 μg/ml
Method: as §1, §2

[3] = test system: Huh 7 (human hepatome-cell line); assay: Cytotoxicity: metabolic activity, EZ4U-Assay, Huh 7; conditions: Huh7 cells; 48 hours after addition; inhibitors up to 1 mM (so in the source); cycloheximide 2.5 μg/ml, camptothecin 0.2 μg/ml
Method: as §1, §2

[4] = test system: CaCo2 (human colon carcinoma-cell line); assay: Cytotoxicity: metabolic activity, EZ4U-Assay, CaCo2; conditions: CaCo2 cells; 48 hours after addition; inhibitors up to 1 mM (so in the source); cycloheximide 2.5 μg/ml, camptothecin 0.2 μg/ml
Method: as §1
After one hour the inhibitors A63 (ZED1227), A29 (ZED1098) and A61 (ZED1219) were added in the concentrations 0.1 μM to 1 μM. The determination of the proliferation was carried out using the Cell Proliferation ELISA, BrdU (Roche 11 647 229 001): 24 hours after incubation of the cells with the inhibitor BrdU was added. The colorimetric development of the test was made after further 48 hours according to manufacturer's information. The extinction was measured at 450 nm. For determination of the metabolic activity using the EZ4U-Assay (Biomedica B1-5000) the tetrazolium substrate was added to the cells 48 hours after addition of the inhibitor. The capacity for reaction of the cells was measured every hour over a period of 4 hours at 450 nm against a reference filter of 630 nm. DMEM without inhibitor was added as reference in both experiments, as positive control cycloheximide (2.5 μg/ml) and camptothecin (0.2 μg/ml).

C[C@@H]1C[C@@H]([C@H](O)CC2CC(=O)NC(=O)C2)C(=O)[C@@H](C)C1 [cycloheximide, reference compound]
significant reduction: effect on proliferation (BrdU) [1] | effect on proliferation (BrdU) [2] | effect on metabolic activity (EZ4U) [3] | effect on metabolic activity (EZ4U) [4]

From patent US9434763B2, “Derivatives of pyridinone as inhibitors for tissue transglutaminase” (ZEDIRA GMBH, priority 2012, dated 2016)
